# Assay results: the supplement of paper PMC10307832
# Tests used:
# Assay in all cases: relative viability (nuclei count vs DMSO), 5 days (fraction); higher = more cells survive
# [1] = test system: LCLC-97TM1
# Outline: (§1)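 One day after seeding in 1536-well plates, lung cancer cell lines were dosed by pin tool. Dosing was either single-drug or a fixed anchor-drug dose plus five library-drug doses (not always all listed) in √10 steps. After 5 days, nuclei were stained in one fix-and-stain step and counted on 4× images, and relative viability is the nuclei count of treated wells over that of vehicle wells, given as the median of duplicate plates.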
# [2] = test system: BEN
# Outline: as §1
# [3] = test system: NCI-H2085
# Outline: as §1
# [4] = test system: NCI-H358
# Outline: as §1
# [5] = test system: SW 1573
# Outline: as §1
# [6] = test system: HOP-62
# Outline: as §1
# [7] = test system: EPLC-272H
# Outline: as §1
# [8] = test system: PC-3 [JPC-3]
# Outline: as §1
# [9] = test system: LOU-NH91
# Outline: as §1
# [10] = test system: EKVX
# Outline: as §1
# [11] = test system: NCI-H1975
# Outline: as §1
# [12] = test system: NCI-H2087
# Outline: as §1
# [13] = test system: HCC-827
# Outline: as §1
# [14] = test system: HCC-44
# Outline: as §1
# [15] = test system: NCI-H1666
# Outline: as §1
# [16] = test system: NCI-H647
# Outline: as §1
# [17] = test system: 201T
# Outline: as §1
# [18] = test system: NCI-H1437
# Outline: as §1
# [19] = test system: H3255
# Outline: as §1
# [20] = test system: COR-L 105
# Outline: as §1
# [21] = test system: NCI-H2126
# Outline: as §1
# [22] = test system: LU99A
# Outline: as §1
structure (smiles),measurement,setting,value
C[C@@H]1CN(CC(=O)Nc2ccc3c(c2)Cc2cccc(-c4cc(=O)cc(N5CCOCC5)o4)c2S3)C[C@H](C)O1 + C[C@@H](Oc1cc(-c2cnn(C3CCNCC3)c2)cnc1N)c1c(Cl)ccc(F)c1Cl [Crizotinib] (partner 1 µM),relative viability,[1]; first compound 0.1265 µM,0.396
same,relative viability,[1]; first compound 0.4 µM,0.287
same,relative viability,[1]; first compound 4 µM,0.337
same,relative viability,[2]; first compound 0.04 µM,0.812
same,relative viability,[2]; first compound 0.1265 µM,0.82
same,relative viability,[2]; first compound 0.4 µM,0.964
same,relative viability,[2]; first compound 4 µM,0.95
same,relative viability,[3]; first compound 0.04 µM,0.922
same,relative viability,[3]; first compound 0.1265 µM,0.88
same,relative viability,[3]; first compound 0.4 µM,0.773
same,relative viability,[3]; first compound 4 µM,0.665
same,relative viability,[4]; first compound 0.04 µM,0.456
same,relative viability,[4]; first compound 0.1265 µM,0.465
same,relative viability,[4]; first compound 0.4 µM,0.718
same,relative viability,[4]; first compound 4 µM,0.365
same,relative viability,[5]; first compound 0.04 µM,0.904
same,relative viability,[5]; first compound 0.1265 µM,0.918
same,relative viability,[5]; first compound 0.4 µM,0.744
same,relative viability,[5]; first compound 4 µM,0.746
same,relative viability,[6]; first compound 0.04 µM,0.876
same,relative viability,[6]; first compound 0.1265 µM,1
same,relative viability,[6]; first compound 0.4 µM,0.884
same,relative viability,[6]; first compound 4 µM,0.941
same,relative viability,[7]; first compound 0.04 µM,1.27
same,relative viability,[7]; first compound 0.1265 µM,0.971
same,relative viability,[7]; first compound 0.4 µM,0.997
same,relative viability,[7]; first compound 4 µM,0.83
same,relative viability,[8]; first compound 0.04 µM,0.947
same,relative viability,[8]; first compound 0.1265 µM,0.936
same,relative viability,[8]; first compound 0.4 µM,0.971
same,relative viability,[8]; first compound 4 µM,0.962
same,relative viability,[9]; first compound 0.04 µM,0.764
same,relative viability,[9]; first compound 0.1265 µM,0.752
same,relative viability,[9]; first compound 0.4 µM,0.948
same,relative viability,[9]; first compound 4 µM,0.72
same,relative viability,[10]; first compound 0.04 µM,0.924
same,relative viability,[10]; first compound 0.1265 µM,0.947
same,relative viability,[10]; first compound 0.4 µM,1.13
same,relative viability,[10]; first compound 4 µM,0.876
same,relative viability,[11]; first compound 0.04 µM,0.947
same,relative viability,[11]; first compound 0.1265 µM,0.905
same,relative viability,[11]; first compound 0.4 µM,0.937
same,relative viability,[11]; first compound 4 µM,0.781
same,relative viability,[12]; first compound 0.04 µM,0.936
same,relative viability,[12]; first compound 0.1265 µM,0.929
same,relative viability,[12]; first compound 0.4 µM,0.895
same,relative viability,[12]; first compound 4 µM,0.748
same,relative viability,[13]; first compound 0.04 µM,1
same,relative viability,[13]; first compound 0.1265 µM,0.817
same,relative viability,[13]; first compound 0.4 µM,0.929
same,relative viability,[13]; first compound 4 µM,0.983
same,relative viability,[14]; first compound 0.04 µM,0.853
same,relative viability,[14]; first compound 0.1265 µM,0.828
same,relative viability,[14]; first compound 0.4 µM,0.699
same,relative viability,[14]; first compound 4 µM,0.526
same,relative viability,[15]; first compound 0.04 µM,0.928
same,relative viability,[15]; first compound 0.1265 µM,1.05
same,relative viability,[15]; first compound 0.4 µM,1.11
same,relative viability,[15]; first compound 4 µM,0.661
same,relative viability,[16]; first compound 0.04 µM,1.04
same,relative viability,[16]; first compound 0.1265 µM,1.09
same,relative viability,[16]; first compound 0.4 µM,1.09
same,relative viability,[16]; first compound 4 µM,0.592
same,relative viability,[17]; first compound 0.04 µM,1.05
same,relative viability,[17]; first compound 0.1265 µM,0.98
same,relative viability,[17]; first compound 0.4 µM,1.04
same,relative viability,[17]; first compound 4 µM,0.971
same,relative viability,[18]; first compound 0.04 µM,0.986
same,relative viability,[18]; first compound 0.1265 µM,0.899
same,relative viability,[18]; first compound 0.4 µM,0.924
same,relative viability,[18]; first compound 4 µM,0.778
same,relative viability,[19]; first compound 0.04 µM,0.824
same,relative viability,[19]; first compound 0.1265 µM,0.785
same,relative viability,[19]; first compound 0.4 µM,0.814
same,relative viability,[19]; first compound 4 µM,0.719
same,relative viability,[20]; first compound 0.04 µM,0.766
same,relative viability,[20]; first compound 0.1265 µM,0.862
same,relative viability,[20]; first compound 0.4 µM,0.881
same,relative viability,[20]; first compound 4 µM,0.435
same,relative viability,[21]; first compound 0.04 µM,1.05
same,relative viability,[21]; first compound 0.1265 µM,1.02
same,relative viability,[21]; first compound 0.4 µM,1.05
same,relative viability,[21]; first compound 4 µM,1.02
same,relative viability,[22]; first compound 0.04 µM,0.523
same,relative viability,[22]; first compound 0.1265 µM,0.636
same,relative viability,[22]; first compound 0.4 µM,0.64
same,relative viability,[22]; first compound 4 µM,0.569
CC(C)Oc1cc(Nc2nc(N[C@@H](C)c3ccc(F)cn3)ncc2Cl)n[nH]1 [AZ23] + CC(C)C[C@H](NC(=O)[C@H](Cc1ccccc1)NC(=O)c1cnccn1)B(O)O [Bortezomib] (partner 0.002 µM),relative viability,[1]; first compound 0.01 µM,0.277
same,relative viability,[1]; first compound 0.03162 µM,1
same,relative viability,[1]; first compound 0.3162 µM,0.755
same,relative viability,[2]; first compound 0.01 µM,0.817
same,relative viability,[2]; first compound 0.03162 µM,1.08
same,relative viability,[2]; first compound 0.3162 µM,0.867
same,relative viability,[3]; first compound 0.01 µM,0.991
same,relative viability,[3]; first compound 0.03162 µM,1.03
same,relative viability,[3]; first compound 0.3162 µM,1.01
same,relative viability,[5]; first compound 0.01 µM,1.24
same,relative viability,[5]; first compound 0.03162 µM,1.2
same,relative viability,[5]; first compound 0.3162 µM,1
same,relative viability,[6]; first compound 0.01 µM,0.821
same,relative viability,[6]; first compound 0.03162 µM,0.517
same,relative viability,[6]; first compound 0.3162 µM,0.867
same,relative viability,[7]; first compound 0.01 µM,0.942
same,relative viability,[7]; first compound 0.03162 µM,1.02
same,relative viability,[8]; first compound 0.01 µM,0.893
same,relative viability,[8]; first compound 0.03162 µM,1.01
same,relative viability,[8]; first compound 0.3162 µM,0.887
same,relative viability,[9]; first compound 0.01 µM,0.535
same,relative viability,[9]; first compound 0.03162 µM,0.546
same,relative viability,[9]; first compound 0.3162 µM,0.519
same,relative viability,[10]; first compound 0.01 µM,1.52
same,relative viability,[10]; first compound 0.03162 µM,1.26
same,relative viability,[10]; first compound 0.3162 µM,1.01
same,relative viability,[11]; first compound 0.01 µM,0.393
same,relative viability,[11]; first compound 0.03162 µM,0.372
same,relative viability,[11]; first compound 0.3162 µM,0.375
same,relative viability,[12]; first compound 0.01 µM,1.3
same,relative viability,[12]; first compound 0.03162 µM,0.962
same,relative viability,[12]; first compound 0.3162 µM,0.778
same,relative viability,[13]; first compound 0.01 µM,1.16
same,relative viability,[13]; first compound 0.03162 µM,1.06
same,relative viability,[13]; first compound 0.3162 µM,1.08
same,relative viability,[14]; first compound 0.01 µM,0.88
same,relative viability,[14]; first compound 0.03162 µM,1.07
same,relative viability,[14]; first compound 0.3162 µM,0.912
same,relative viability,[15]; first compound 0.01 µM,0.725
same,relative viability,[15]; first compound 0.03162 µM,0.878
same,relative viability,[15]; first compound 0.3162 µM,0.889
same,relative viability,[16]; first compound 0.01 µM,1.41
same,relative viability,[16]; first compound 0.03162 µM,1.16
same,relative viability,[16]; first compound 0.3162 µM,1.12
same,relative viability,[17]; first compound 0.01 µM,1.18
same,relative viability,[17]; first compound 0.03162 µM,1.07
same,relative viability,[17]; first compound 0.3162 µM,1.13
same,relative viability,[18]; first compound 0.01 µM,0.541
same,relative viability,[18]; first compound 0.03162 µM,0.484
same,relative viability,[18]; first compound 0.3162 µM,0.569
same,relative viability,[19]; first compound 0.01 µM,0.64
same,relative viability,[19]; first compound 0.03162 µM,1.06
same,relative viability,[19]; first compound 0.3162 µM,0.81
same,relative viability,[20]; first compound 0.01 µM,0.733
same,relative viability,[20]; first compound 0.03162 µM,1.04
same,relative viability,[20]; first compound 0.3162 µM,0.757
same,relative viability,[21]; first compound 0.01 µM,1.18
same,relative viability,[21]; first compound 0.03162 µM,1.18
same,relative viability,[21]; first compound 0.3162 µM,1.09
same,relative viability,[22]; first compound 0.01 µM,1.13
same,relative viability,[22]; first compound 0.03162 µM,1.2
same,relative viability,[22]; first compound 0.3162 µM,1.13
